Entries after “also recorded” stand apart in the source; their conditions may differ. Read-outs that look alike come from different tables or passages of the source.

Data set [1] has as its system RS virus. Conditions: moi 1-2, control titers 1-5 × 10^7.
The test system of data set [2] is RS virus. Put plainly: RS virus cytopathology / syncytium formation in Hep-2 cells (Table 3). The conditions noted are these: for Effect on RS virus cytopathology (syncytia) / Suppression of RS virus syncytia (in words): Hep-2; for Effect on RS virus cytopathology (syncytia): added 2 hour post infection.
Another data set concerns cell growth. The conditions noted are these: cited from earlier work.
Data set [3] deals with plasminogen activator urokinase. The conditions noted are these: cited from earlier work.
A further data set has as its system HSV-1. Kind of data set: HSV-1 yield in CV-1 cells maintained with compound 7. It is filed as cell-based, herpes simplex type 1. The conditions noted are these: 50 μM for 6 days; challenged on day 6.
The next data set has as its system P-3 virus. Kind of data set: Multiple cycle yields of P-3 virus (Table 5). The format is cell-based, Parainfluenza type 3. The conditions noted are these: 50 μM. How it is done:
(§1) Virus yields were quantitated by calculating 50 percent end points according to the method of Reed and Muench (A simple method for estimating fifty percent end-points. Am. J. Hyg. b 27, 493-497 (1938)). Briefly, 0.05 ml of virus diluted in MEM plus 10% FCS was added to micro-titer plates. This was followed by the addition of 40,000-60,000 Hep-2 cells in a volume of 0.05 ml. Plates were incubated at 36° C. for 5-7 days. Six or eight wells were used for each dilution. Standard error analysis was done according to the method of Pizzi (Sampling variation of the fifty percent endpoint determined by the Reed-Muench (Behrens) method. Human Biol. 22, 151-180 (1950)).
(§2) For these experiments, Hep- 2 cells were infected with either RS virus or
(§3) P-3 virus at multiplicities of infection of 0.1, 0.01, or 0.001. Following
(§4) a 2 hour adsorption period, the cultures received medium with or without a
(§5) The monolayers were harvested after
(§6) multiple cycles of replication and the yields were determined in
(§7) inhibitor-free microtiter assays.

The test system of data set [4] is RS virus. Kind of data set: RS yields after pretreatment of Hep-2 cells at high multiplicities of infection. The format is cell-based, A2 strain. An excerpt:
RS virus. Even at high multiplicities of infection, pretreatment of Hep-2
reduction of RS yields. The results in Table 5 also reveal that the […]

In data set [5] the test system is RS virus. Put plainly: RS virus cytopathic effect in CV-1 cells. Conditions: 50 μM; 8 days post infection; over 50% of untreated monolayer destroyed. The format is cell-based, A2 strain. The text has this: (§8) This reduction of cytopathology was even more obvious in RS virus infected CV-1 cells examined at 8 days post infection. It was observed that in untreated infected cultures over 50% of the monolayer was destroyed during the multiple cycles of RS virus growth.

The test system of data set [6] is RS virus. Put plainly: Multiple cycle yields of RS virus (Table 5). Conditions: for Multiple cycle yield of RS virus, treated: 50 μM. It is filed as cell-based, A2 strain. How it is done:
as §1, §2, §3, §4, §5, §6, §7

The subject of data set [7] is RS virus. It is filed as cell-based, A2 strain.
For the next data set, the system named is P-3. Put plainly: P-3 yield in CV-1 cells maintained with compound 7. The conditions noted are these: 50 μM for 6 days; challenged on day 6. It is filed as cell-based, Parainfluenza type 3.
A further data set relates to MP mutant of HSV-1. Put plainly: Fusion of CV-1 cells by MP mutant of HSV-1. It is filed as cell-based, herpes simplex type 1.
Description: A polykaryoctye-forming mutant (MP) of herpes simplex type 1 (HSV-1) was also employed.
as §8

On to `N=C(N)c1ccccc1` [Compound 1, Benzamidine, reference compound], for which the “Single cycle yield of RS virus (RS virus titers)” value (from here on “Single cycle yield of RS virus”) with RS virus [1] (50 μM) was 1.1 × 10^7 TCID50/ml. Also, in the data set with RS virus [2] (50 μM), the “Effect on RS virus cytopathology (syncytia)” value is “S”. Also, in the data set on cell growth, the “Concentration reducing cell growth rates” value is given as “greater than 500 μM”.

For `N=C(N)c1ccc(OCCCCCCOc2ccccc2)cc1` [Compound 3, 1-(4-Amidinophenoxy-6-phenoxyhexane], the “Pattern of toxicity compared with Hep-2 cells” value in the data set on BHK-21, with CV-1 and in the data set with A549 was “identical pattern of toxicity” throughout. In the data set with RS virus [1] (10 μM), the “Single cycle yield of RS virus” value was 3.5 × 10^7 TCID50/ml. Also, the “Effect on RS virus cytopathology (syncytia)” value in the data set on RS virus [2] (10 μM) is on record as “S”.

On to `N=C(N)c1ccc(OCCCCCCCCOc2ccccc2)cc1` [Compound 4, 1-(4-Amidinophenoxy)-8-phenoxyoctane], for which the “Single cycle yield of RS virus” value in the data set with RS virus [1] (10 μM) is on record as 3.5 × 10^7 TCID50/ml. For the same molecule, in the data set with RS virus [2] (10 μM), the “Effect on RS virus cytopathology (syncytia)” value is on record as “S”.

Broadly, the Ki is the dissociation constant of the complex between target and ligand, obtained from inhibition or displacement. For `N=C(N)c1ccc(OCCC(O)COc2ccc(C(=N)N)cc2)cc1` (stereo not shown) [Compound 5, 1,4-Di(4-amidinophenoxy)-2-butanol], the “Single cycle yield of RS virus” value in the data set on RS virus [1] (10 μM) is listed as 0.5 × 10^7 TCID50/ml; with RS virus [1] (100 μM), 5.0 × 10^5 TCID50/ml. For the same molecule, in the data set on RS virus [2], the “Inhibition of RS virus / RS virus-induced cell fusion (general statement)” value is listed as “inhibitively effective against RS virus”. The “Effect on RS virus cytopathology (syncytia)” value in the data set with RS virus [2] (0.1 μM) and in the data set on RS virus [2] (1.0 μM) was “S” throughout. The “Suppression of RS virus syncytia (in words)” value (“Suppression” for short) in the data set on RS virus [2] was “suppressed the appearance of the characteristic syncytia”. For the same molecule, in data set [3], the inhibition constant (Ki) was 3.2 µM.

For `N=C(N)c1ccc2nc(Cc3nc4ccc(C(=N)N)cc4[nH]3)[nH]c2c1` [Compound 7, Bis(5-amidino-2-benzimidazolyl)methane], the “HSV-1 yield after prolonged exposure of CV-1 cells” value with HSV-1 was “normal yields”. The “Effect on yield of P-3 virus (in words)” value in the data set on P-3 virus (low moi) was “slight, but consistent decrease”. The “Multiple cycle yield of P-3 virus, treated” value is on record as 6.3 × 10^7 TCID50 /ml with P-3 virus (moi 0.001, harvested 72 hr post infection, control 2.0 × 10^8); 4.6 × 10^7 TCID50 /ml in the data set with P-3 virus (moi 0.01, harvested 48 hr post infection, control 7.9 × 10^7); 7.9 × 10^7 TCID50 /ml with P-3 virus (moi 0.1, harvested 48 hr post infection, control 3.5 × 10^8). The “Pattern of toxicity compared with Hep-2 cells” value in the data set on BHK-21, with CV-1 and in the data set on A549 was “identical pattern of toxicity” in each case. Further, in the data set with RS virus [4], the log reduction at 50 µM lay within 1 to 2. Besides, the entries for the “Single cycle yield of RS virus” value in the data set with RS virus [1] (50 μM) and in the data set on RS virus [1] (500 μM) were 6.3 × 10^7 TCID50/ml and 2.0 × 10^7 TCID50/ml, respectively. Also, the “Inhibition of RS virus / RS virus-induced cell fusion (general statement)” value in the data set with RS virus [2] is recorded as “inhibitively effective against RS virus”. For the same molecule, the “Effect on RS virus cytopathology (syncytia)” value with RS virus [2] (0.1 μM) was “S”. Also, in the data set with RS virus [2] (1.0 μM, moi 1-2, 40 hrs post infection), the “Fusion of RS virus-infected cells (morphology)” value was “abolition of fusion”. Moreover, the minimal effective concentration with RS virus [2] (HEp-2, read-out: Lowest concentration inhibiting syncytium formation) is 1 µM. The “RS virus cytopathic effect in CV-1 cells” value in the data set with RS virus [5] was “preservation of the monolayer with individual foci of infection appearing to be inhibited in their spread to uninfected areas of the culture”. Besides, the “Multiple cycle yield of RS virus, treated” value in the data set on RS virus [6] (moi 0.001, harvested 120 hr post infection, control 2.8 × 10^6) is given as 1.1 × 10^4 TCID50 /ml; in the data set with RS virus [6] (moi 0.01, harvested 120 hr post infection, control 3.2 × 10^7), 1.2 × 10^5 TCID50 /ml; with RS virus [6] (moi 0.1, harvested 72 hr post infection, control 5.0 × 10^7), 6.3 × 10^6 TCID50 /ml. The “Effect on multiple cycle yields / spreading of RS virus (in words)” value with RS virus [6] (compound 7: 50 μM, low moi) was “considerably less; also recorded: greatly reduced the spreading”. In addition, the “Behavior of RS virus replicated in presence of inhibitor versus control” value in the data set on RS virus [7] (50 μM, RSI series vs C series) is on record as “did not behave differently from the control”. In the data set on RS virus [7] (compound 7: 50 μM), the “Effect on RS virus penetration (in words)” value is “penetration was delayed to a similar degree”. Moreover, the “RS virus titer, TCID50 (Log 10)” value with RS virus [7] (titer #1: RSI + I + A, 50 μM) is reported as 4.11 TCID50 (Log 10); with RS virus [7] (titer #2: RSI + I + A (so in the source), 50 μM), 5.97 TCID50 (Log 10); in the data set with RS virus [7] (titer #3: RSI - I + A, virus grown with 50 μM, none during adsorption), 5.50 TCID50 (Log 10); with RS virus [7] (titer #4: RSI - I + A (so in the source), virus grown with 50 μM, none during adsorption) it was 5.97 TCID50 (Log 10); with RS virus [7] (titer #5: C + I + A, untreated control #7 (C - I + A) 6.73), 5.59 TCID50 (Log 10); in the data set on RS virus [7] (titer #6: C + I - A, untreated control #8 (C - I + A as printed) 6.97), 6.92 TCID50 (Log 10). Also, the “P-3 yield after prolonged exposure of CV-1 cells” value in the data set on P-3 was “normal yields”. Moreover, the “Effect on ability of MP mutant of HSV-1 to fuse cells” value with MP mutant of HSV-1 is “no effect”.

Take `N=C(N)c1ccc2nc(CCc3nc4ccc(C(=N)N)cc4[nH]3)[nH]c2c1` [Compound 8, 1,2-Bis(5-amidino-2-benzimidazolyl)ethane]: the “Single cycle yield of RS virus” value in the data set on RS virus [1] (10 μM) is listed as 6.3 × 10^7 TCID50/ml; in the data set on RS virus [1] (100 μM), 7.9 × 10^7 TCID50/ml. Further, in the data set with RS virus [2], the “Inhibition of RS virus / RS virus-induced cell fusion (general statement)” value is listed as “inhibitively effective against RS virus”. Moreover, the “Effect on RS virus cytopathology (syncytia)” value with RS virus [2] (0.1 μM) and in the data set on RS virus [2] (1.0 μM) was “S” throughout. Besides, in the data set with RS virus [2], the “Suppression” value is reported as “lower activity”.

As to `N=C(N)c1ccc2[nH]ccc2c1` [Compound 9, 5-Amidinoindole], the “Single cycle yield of RS virus” value in the data set on RS virus [1] (10 μM) is listed as 2.9 × 10^7 TCID50/ml; with RS virus [1] (100 μM) it was 6.3 × 10^7 TCID50/ml. In addition, the “Inhibition of RS virus / RS virus-induced cell fusion (general statement)” value in the data set on RS virus [2] is on record as “inhibitively effective against RS virus”. For the same molecule, the “Effect on RS virus cytopathology (syncytia)” value with RS virus [2] (0.1 μM) and in the data set on RS virus [2] (1.0 μM) was “S” throughout.

Take `N=C(N)c1ccc2occc2c1` [Compound 10, 5-Amidinobenzofuran]: the entries for the “Single cycle yield of RS virus” value in the data set with RS virus [1] (10 μM) and in the data set on RS virus [1] (100 μM) were 1.1 × 10^7 TCID50/ml and 6.3 × 10^7 TCID50/ml, respectively. Further, the “Effect on RS virus cytopathology (syncytia)” value in the data set with RS virus [2] (10 μM) and in the data set with RS virus [2] (100 μM) was “S” each time.

Take `N=C(N)c1ccc2nc[nH]c2c1` [Compound 11, 5-Amidinobenzimidazole]: the “Single cycle yield of RS virus” value in the data set with RS virus [1] (100 μM) was 8.7 × 10^7 TCID50/ml. In addition, in the data set with RS virus [2], the “Inhibition of RS virus / RS virus-induced cell fusion (general statement)” value is given as “inhibitively effective against RS virus” and the “Suppression” value was “suppressed the appearance of the characteristic syncytia”. In addition, the “Effect on RS virus cytopathology (syncytia)” value with RS virus [2] (1.0 μM) is “S”. The “Effect on RS virus cytopathology (syncytia)” value with RS virus [2] (10 μM) is reported as “S”. The “Cytotoxicity relative to other compounds (in words)” value in the data set on Hep-2 cells is “possessed the same or even less toxic activity than benzamidine”.

For `Cn1ccc2cc(C(=N)N)ccc21` [Compound 12, 5-Amidino-1-methylindole], in the data set on RS virus [2], the “Inhibition of RS virus / RS virus-induced cell fusion (general statement)” value is on record as “inhibitively effective against RS virus” and the “Suppression” value was “suppressed the appearance of the characteristic syncytia”. For the same molecule, the “Cytotoxicity relative to other compounds (in words)” value in the data set with Hep-2 cells was “intermediate in their cytotoxicity”.

Turning to `N=C(N)c1ccc(Cn2ccc3cc(C(=N)N)ccc32)cc1` [Compound 13, 5-Amidino-1-(4-amidinobenzyl)indole], the “Inhibition of RS virus / RS virus-induced cell fusion (general statement)” value in the data set on RS virus [2] is “inhibitively effective against RS virus”. The “Effect on RS virus cytopathology (syncytia)” value with RS virus [2] (0.1 μM) and with RS virus [2] (1.0 μM) was “S” throughout. The “Suppression” value in the data set with RS virus [2] was “suppressed the appearance of the characteristic syncytia”. In the data set on Hep-2 cells, the “Cytotoxicity relative to other compounds (in words)” value is “intermediate in their cytotoxicity”.
